Here are results for 2 molecules from patent EP0643971A2, “Antifungal compositions consisting of an antifungal agent, e.g. antibiotic R-106I, and a fungal MDR inhibitor” (priority 1993, dated 1995).

For this experiment, the system named is Penicillium chrysogenum. The experiment is described as follows: Potentiation of hygromycin B toxicity by trifluoroperazine, growth of regenerating protoplasts on agar. Format: cell-based. On the set-up: key to Growth: +: growth of the Penicillium chrysogenum cells, and therefore, that the toxic effect of hygromycin B was not potentiated by TFP; -: no growth of the Penicillium chrysogenum culture, and therefore, that the toxic effect of hygromycin B was potentiated by trifluoroperazine. Particulars: for Growth: 28°C, 48 hours. The text has this:
Protoplasts of Penicillium chrysogenum (Eli Lilly and Co.) were formed with Novozyme 234 in substantial accordance with the procedure described for Cephalosporium acremonium by Queener et al., 1985 Microbiology 1985, American Society for Microbiology, pp 468-472, and by Skatrud et al., 1987, Current Genetics, 12:337-348. During formation of the P. chrysogenum, protoplasts and subsequent cell wall regeneration, sucrose was used as an osmotic stabilizer rather than sodium chloride as described in the above references. Petri plates were prepared that contained an agar layer consisting of: yeast nitrogen base without amino acids and ammonium sulfate (1.7 g/L) (Difco Laboratories, Detroit, MI); ammonium sulfate (5 g/L); and sucrose (125 g/L); trifluoroperazine (final concentration […]; Sigma Chemical Co. Catalog #T-8516); and cadmium chloride (final concentration 3 mM/ml). Approximately 3 X 10⁷ Penicillium chrysogenum protoplasts were delivered to the surface of the solidified agar in a 4 ml soft agar overlay consisting of the following ingredients: yeast nitrogen base without amino acids and ammonium sulfate (1.7 g/L) (Difco Laboratories, Detroit, MI); ammonium sulfate (5 g/L); sucrose (125 g/L); and agar (4 g/L). The plates were incubated overnight at 15°C.
The next morning hygromycin B (final concentration […]; Boehringer Mannheim Catalog #843 555) was added to the plates in a 4 ml soft agar overlay consisting of yeast nitrogen base without amino acids and ammonium sulfate (1.7 g/L) (Difco Laboratories, Detroit, MI); ammonium sulfate (5 g/L); sucrose (125 g/L); and agar (4 g/L). The plates were incubated at 28°C for 48 hours.
In Table 2, a result of "+" indicates growth of the Penicillium chrysogenum cells, and therefore, that the toxic effect of hygromycin B was not potentiated by TFP. A result of "-" indicates no growth of the Penicillium chrysogenum culture, and therefore, that the toxic effect of hygromycin B was potentiated by trifluoroperazine.

In the case of `CN[C@H]1C[C@@H](N)[C@H](O)[C@@H](O[C@@H]2O[C@H](CO)[C@H](O)[C@@H]3OC4(O[C@H]23)O[C@H]([C@@H](N)CO)[C@H](O)[C@H](O)[C@H]4O)[C@@H]1O` (stereo partly drawn) [Hygromycin B, hygromycin B], the Growth result was “-” (Hygromycin B 0.250 mg/ml, TFP 250 µM); “-” (Hygromycin B 1 mg/ml, TFP 500 µM); “-” (Hygromycin B 2 mg/ml, TFP 500 µM); “-” (Hygromycin B 3 mg/ml, TFP 500 µM); “-” (Hygromycin B 4 mg/ml, TFP 500 µM); “+” (Hygromycin B 5 mg/ml, TFP 0 µM). Moreover, under “Hygromycin B 5 mg/ml, TFP 500 µM”, the Growth result is “-”.

Consider `CN1CCN(CCCN2c3ccccc3Sc3ccc(C(F)(F)F)cc32)CC1` [TFP, trifluoroperazine], for which, for the setting “Hygromycin B 0 mg/ml, TFP 500 µM”, the Growth entry is on record as “+”. For the same molecule, the “toxic effect of hygromycin B on Penicillium chrysogenum” value (in the presence of triflouroperazine, summary of Table 2) is reported as “potentiated”.
